Counter-ions that a name gives are not always drawn.
Experiments:
[1] = test system: Drosophila larvae expressing G298S TDP-43 in motor neurons; experiment: Drug screen: rescue of lethality caused by G298S TDP-43 expression in motor neurons (D42 Gal4); format: in vivo
From the text: (§1) […] Larvae expressing TDP-43 (wild type or mutant, as shown) are raised on drug containing food.
(§2) […] Larvae expressing TDP-43 (wt or mutant) were raised on drug containing food.
Using a Drosophila model of ALS based on TDP-43 that recapitulates several aspects of the disease pathophysiology (33, 35), a drug screen aimed at identifying FDA approved compounds with neuroprotective potential in vivo were designed (FIG. 37A). […] This phenotype was used to screen for drug candidates with therapeutic potential as determined by their ability to rescue pupal lethality and produce viable adults with extended wings (FIG. 37A).
Larvae expressing TDP-43 in motor neurons (D42>TDP-43) were raised on fly food containing different amounts of drug (1, 10 and 25 μM, see Materials and Methods for details) or Dimethyl Sulfoxide (DMSO) as vehicle control (FIG. 37B, C).
(§3) UAS TDP-43 males were crossed with D42-Gal4 female virgins on fly food containing either DMSO or pioglitazone. For DMSO controls, the same volume of DMSO as the corresponding drug concentration was added. Bromophenol blue was added to a final concentration of approximately 0.02% to ensure homogeneity. Crosses were made on drug food with 3 female virgins and 2 males in each vial, and were maintained at 25° C. unless noted. The parents were discarded after 5-7 days then the vials were screened for adult progeny with straight wings from day 14 to day 25. All adults were screened for TDP-43 expression by visualizing the YFP tag. Total number of pupae was counted on day 25. Percent survival was calculated using the formula (total number of straight-winged adults/total number of pupae)×100. All experiments were performed in triplicate.

[2] = test system: Drosophila larvae expressing wild-type TDP-43 in motor neurons; experiment: Drug screen: rescue of lethality caused by wild-type TDP-43 expression in motor neurons (D42 Gal4); format: in vivo; conditions: transgene WT2
From the text: as §1, §2
Using a Drosophila model of ALS based on TDP-43 that recapitulates several aspects of the disease pathophysiology (33, 35), a drug screen aimed at identifying FDA approved compounds with neuroprotective potential in vivo were designed (FIG. 37A). […] This phenotype was used to screen for drug candidates with therapeutic potential as determined by their ability to rescue pupal lethality and produce viable adults with extended wings (FIG. 37A). […]
as §3

[3] = transgene G298S, 30 μM in fly food
[4] = transgene G298S, 50 μM in fly food

Nc1nc(NC2CC2)c2ncn([C@H]3C=C[C@@H](CO)C3)c2n1 [Abacavir Sulfate]
Preliminary rescue result: adults with normal wings [1, 3]: 1 Adult Normal Wings Adults

NCCCNCCSP(=O)(O)O [Amifostine]
Preliminary rescue result: adults with normal wings [1, 4]: 1 Adult Normal Wings Adults

CN(C)CCC=C1c2ccccc2CCc2ccccc21.Cl [Amitryptiline Hydrochloride]
Preliminary rescue result: adults with normal wings [1, 4]: 1 Adult Normal Wings Adults

c1ccc(-c2ccc(C(c3ccccc3)n3ccnc3)cc2)cc1 (stereo not drawn) [Bifonazole]
Preliminary rescue result: adults with normal wings ([1]; transgene G298S4, 30 μM in fly food): 1 Adult Normal Wings Adults

C[C@H](CCC(=O)O)[C@H]1CC[C@H]2[C@@H]3[C@H](O)C[C@@H]4C[C@H](O)CC[C@]4(C)[C@H]3CC[C@]12C [Chenodiol]
Preliminary rescue result: adults with normal wings [1, 4]: 1 Adult Normal Wings Adults

CCn1nc(C(=O)O)c(=O)c2cc3c(cc21)OCO3 [Cinoxacin]
Preliminary rescue result: adults with normal wings [1, 3]: 1 Adult Normal Wings Adults

CN1CCN(C2=Nc3cc(Cl)ccc3Nc3ccccc32)CC1 [Clozapine]
Preliminary rescue result: adults with normal wings [1, 4]: 1 Adult Normal Wings Adults

CCN(CC)C(=O)/C(C#N)=C/c1cc(O)c(O)c([N+](=O)[O-])c1 [Entacapone]
Preliminary rescue result: adults with normal wings [1, 4]: 5 Adult Normal Wings Adults

O=C(O)c1ccccc1Nc1cccc(C(F)(F)F)c1 [Flufenamic Acid]
Preliminary rescue result: adults with normal wings [1, 4]: 1 Adult Normal Wings Adults

COc1cc2ncnc(Nc3ccc(F)c(Cl)c3)c2cc1OCCCN1CCOCC1 [Gefitinib]
Preliminary rescue result: adults with normal wings [1, 4]: 1 Adult Normal Wings Adults

C[N+]1(C)CCOC(O)(c2ccc(-c3ccc(C4(O)C[N+](C)(C)CCO4)cc3)cc2)C1.[Br-].[Br-] (stereo not drawn) [Hemicholinium Bromide]
Preliminary rescue result: adults with normal wings [1, 4]: 1 Adult Normal Wings Adults

Nc1ccn([C@@H]2CS[C@H](CO)O2)c(=O)n1 [Lamivudine]
Preliminary rescue result: adults with normal wings [1, 4]: 2 Adults Normal Wings

C[N+]1(C)CCCC(OC(=O)C(O)(c2ccccc2)c2ccccc2)C1 (stereo not drawn) [Mepenzolate Bromide]
Preliminary rescue result: adults with normal wings [1, 4]: 2 Adult Normal Wings Adults

COc1cc(NC(C)CCCN)c2ncccc2c1 (stereo not drawn) [Primaquine Diphosphate]
Preliminary rescue result: adults with normal wings ([2]; 50 μM in fly food): 1 Adult Normal Wings Adults

OC(CCN1CCCC1)(c1ccccc1)C1CCCCC1 (stereo not drawn) [Procyclidine HCL]
Preliminary rescue result: adults with normal wings ([2]; 30 μM in fly food): 1 Adult Normal Wings Adults

CCCOc1cc(N)ccc1C(=O)OCCN(CC)CC [Propoxycaine Hcl]
Preliminary rescue result: adults with normal wings ([2]; 30 μM in fly food): 1 Adult Normal Wings Adults

CCCc1cc(C(N)=S)ccn1 [Prothionamide]
Preliminary rescue result: adults with normal wings ([2]; 30 μM in fly food): 1 Adult Normal Wings Adults

CNCCCC1c2ccccc2C=Cc2ccccc21 [Protriptyline Hydrochloride]
Preliminary rescue result: adults with normal wings ([2]; 30 μM in fly food): 1 Adult Normal Wings Adults

CCOC(=O)[C@H](CCc1ccccc1)N[C@@H](C)C(=O)N1Cc2ccccc2C[C@H]1C(=O)O [Quinapril Hcl]
Preliminary rescue result: adults with normal wings ([2]; 30 μM in fly food): 2 Adult Normal Wings Adults

COc1ccc2cc([C@@H](C)C(=O)[O-])ccc2c1.[Na+] [R-Naproxen Na Salt]
Preliminary rescue result: adults with normal wings ([2]; 30 μM in fly food): 2 Adult Normal Wings Adults

CCN1CCC[C@H]1CNC(=O)c1c(O)c(Cl)cc(Cl)c1OC [Raclopride]
Preliminary rescue result: adults with normal wings ([2]; 50 μM in fly food): 2 Adults Normal Wings

CCOC(=O)[C@H](CCc1ccccc1)N[C@@H](C)C(=O)N1[C@H](C(=O)O)C[C@@H]2CCC[C@@H]21 [Ramipril]
Preliminary rescue result: adults with normal wings ([2]; 30 μM in fly food): 1 Adult Normal Wings Adults

CCOc1cc(CC(=O)N[C@@H](CC(C)C)c2ccccc2N2CCCCC2)ccc1C(=O)O [Repaglinide]
Preliminary rescue result: adults with normal wings ([2]; 50 μM in fly food): 1 Adult Normal Wings Adults

CCC(=O)[C@@]1(C)[C@H](C)C[C@H]2[C@@H]3CCC4=CC(=O)C=C[C@]4(C)[C@H]3[C@@H](O)C[C@@]21C [Rimexolone]
Preliminary rescue result: adults with normal wings ([2]; 30 μM in fly food): 1 Adult Normal Wing Adults

Cc1nc2n(c(=O)c1CCN1CCC(c3noc4cc(F)ccc34)CC1)CCCC2 [Risperidone]
Preliminary rescue result: adults with normal wings ([2]; 30 μM in fly food): 1 Adult Normal Wing Adults

CC(NCCc1ccc(O)cc1)C(O)c1ccc(O)cc1 (stereo not drawn) [Ritodrine]
Preliminary rescue result: adults with normal wings ([2]; 50 μM in fly food): 2 Adults Normal Wings

COc1ccc(C2CNC(=O)C2)cc1OC1CCCC1 (stereo not drawn) [Rolipram]
Preliminary rescue result: adults with normal wings ([2]; 30 μM in fly food): 1 Adult Normal Wings Adults

CN1CCN(c2c(F)cc3c(=O)c(C(=O)O)cn4c3c2SCC4)CC1 [Rufloxacin]
Preliminary rescue result: adults with normal wings ([2]; 30 μM in fly food): 1 Adult Normal Wings Adults

CN[C@@H]1[C@@H](O)[C@@H](O[C@@H]2[C@@H](O)[C@H](O[C@H]3OC(CN)=CC[C@H]3N)[C@@H](N)C[C@H]2N)OC[C@]1(C)O [Sisomicin Sulfate]
Preliminary rescue result: adults with normal wings ([2]; 50 μM in fly food): 1 Adult Normal Wings Adults

CC1(C)[C@H](C(=O)O)N2C(=O)C[C@H]2S1(=O)=O [Sulbactam]
Preliminary rescue result: adults with normal wings ([2]; 30 μM in fly food): 1 Adult Normal Wings Adults

COc1cnc(NS(=O)(=O)c2ccc(N)cc2)nc1 [Sulfameter]
Preliminary rescue result: adults with normal wings ([2]; 30 μM in fly food): 3 Adult Normal Wings Adults

Nc1ccc(S(N)(=O)=O)cc1 [Sulfanilamide]
Preliminary rescue result: adults with normal wings ([2]; 50 μM in fly food): 1 Adult Normal Wings Adults

Cc1noc(NS(=O)(=O)c2ccc(N)cc2)c1C [Sulfisoxazole]
Preliminary rescue result: adults with normal wings ([2]; 50 μM in fly food): 1 Adult Normal Wings Adults

CCCCCCCCNC(C)C(O)c1ccc(SC(C)C)cc1 (stereo not drawn) [Suloctidil]
Preliminary rescue result: adults with normal wings ([2]; 50 μM in fly food): 6 Adults Normal Wings

CCN1CCCC1CNC(=O)c1cc(S(N)(=O)=O)ccc1OC (stereo not drawn) [Sulpiride]
Preliminary rescue result: adults with normal wings ([2]; 50 μM in fly food): 1 Adult Normal Wings Adults

Nc1c2c(nc3ccccc13)CCCC2 [Tacrine Hydrochloride Hydrate]
Preliminary rescue result: adults with normal wings ([2]; 50 μM in fly food): 4 Adults Normal Wings

COc1cc2nc(N3CCN(C(=O)C4CCCO4)CC3)nc(N)c2cc1OC.Cl (stereo not drawn) [Terazosin HC1]
Preliminary rescue result: adults with normal wings ([2]; 30 μM in fly food): 3 Adult Normal Wings Adults

CC1(C)S[C@@H]2[C@H](NC(=O)[C@H](C(=O)[O-])c3ccsc3)C(=O)N2[C@H]1C(=O)[O-].[Na+].[Na+] [Ticarcillin Sodiim]
Preliminary rescue result: adults with normal wings ([2]; 30 μM in fly food): 1 Adult Normal Wings Adults

CN(C)CCOc1ccc(/C(=C(/CCCl)c2ccccc2)c2ccccc2)cc1 [Toremifene]
Preliminary rescue result: adults with normal wings ([2]; 30 μM in fly food): 1 Adult Normal Wings Adults

NC1CCN(c2nc3c(cc2F)c(=O)c(C(=O)O)cn3-c2ccc(F)cc2F)C1 (stereo not drawn) [Tosufloxacin Hydrochloride]
Preliminary rescue result: adults with normal wings ([2]; 50 μM in fly food): 3 Adult Normal Wings Adults

CCCCNc1c(C(=O)OCC)c(C)nc2c1cnn2CC [Tracazolate Hydrochloride]
Preliminary rescue result: adults with normal wings ([2]; 30 μM in fly food): 1 Adult Normal Wings Adults

COc1ccccc1N1CCN(CCCNc2cc(=O)n(C)c(=O)n2C)CC1 [Urapidil Hydrochloride]
Preliminary rescue result: adults with normal wings ([2]; 30 μM in fly food): 1 Adult Normal Wings Adults

C[C@H](CCC(=O)O)[C@H]1CC[C@H]2[C@@H]3[C@@H](O)C[C@@H]4C[C@H](O)CC[C@]4(C)[C@H]3CC[C@]12C [Urosiol]
Preliminary rescue result: adults with normal wings ([2]; 30 μM in fly food): 2 Adult Normal Wings Adults

CCCc1nc(C)c2c(=O)[nH]c(-c3cc(S(=O)(=O)N4CCN(CC)CC4)ccc3OCC)nn12 [Vardenafil]
Preliminary rescue result: adults with normal wings ([2]; 50 μM in fly food): 3 Adult Normal Wings Adults

CCN(C(C)=O)c1cccc(-c2ccnc3c(C#N)cnn23)c1 [Zaleplon]
Preliminary rescue result: adults with normal wings ([2]; 50 μM in fly food): 1 Adult Normal Wings Adults

COc1cc(-c2ccc(=O)[nH]n2)ccc1OC(F)F [Zardaverine]
Preliminary rescue result: adults with normal wings ([2]; 30 μM in fly food): 1 Adult Normal Wings Adults

Cc1cc(CC(=O)[O-])n(C)c1C(=O)c1ccc(Cl)cc1.O.O.[Na+] [Zomepirac Na Salt]
Preliminary rescue result: adults with normal wings ([2]; 30 μM in fly food): 3 Adult Normal Wings Adults

CCCc1nc2c(C)cc(-c3nc4ccccc4n3C)cc2n1Cc1ccc(-c2ccccc2C(=O)O)cc1 [′Telmisartan]
Preliminary rescue result: adults with normal wings ([2]; 30 μM in fly food): 2/2 Adult Normal Wings

Carbinoxamine Maleate Salt
Preliminary rescue result: adults with normal wings ([2]; 30 μM in fly food): 1 Adult Normal Wings Adults

Thioproperazine Dimesylate
Preliminary rescue result: adults with normal wings ([2]; 50 μM in fly food): 1 Adult Normal Wings Adults

Verteporfin
Preliminary rescue result: adults with normal wings ([2]; 30 μM in fly food): 1 Adult Normal Wings Adults

— US20150143553A1, “Methods And Compositions Comprising A Drosophila Model Of Amyotrophic Lateral Sclerosis” (priority 2013, published 2015)
